Assay results: US20240218022A1, “ANTI-VISTA MACROCYCLIC PEPTIDES AND COMPOSITIONS” (BRISTOL-MYERS SQUIBB COMPANY, priority 2022, published 2024)
Positions of bridges follow the written chain, without caps; N, C: chain ends. Non-standard residues stand in square brackets, D forms with d. Residues, ends and D or L forms follow the SMILES beside them. ξ: configuration not given here. Phe(3-CN) = N#Cc1cccc(C[C@H](N)C(=O)O)c1; Phe(3-Cl) = N[C@@H](Cc1cccc(Cl)c1)C(=O)O; Phe(3-F) = N[C@@H](Cc1cccc(F)c1)C(=O)O; Phe(3-Me) = Cc1cccc(C[C@H](N)C(=O)O)c1; Phe(4-Me) = Cc1ccc(C[C@H](N)C(=O)O)cc1; Ahp(2) = CCCCC[C@H](N)C(=O)O; NMeNle = CCCC[C@H](NC)C(=O)O; Tle = CC(C)(C)[C@H](N)C(=O)O; NHexGly = CCCCCCNCC(=O)O; Nle = CCCC[C@H](N)C(=O)O; Orn = NCCC[C@H](N)C(=O)O; ξD = NC(CC(=O)O)C(=O)O; ξS = NC(CO)C(=O)O

Target: T1, mouse VISTA (mVISTA) (Mus musculus, UniProt Q9D659)
T1 construct: expressed in transfected cells; host or cells: Human embryonic kidney 293T cells
T1 sequence (Q9D659 33-308): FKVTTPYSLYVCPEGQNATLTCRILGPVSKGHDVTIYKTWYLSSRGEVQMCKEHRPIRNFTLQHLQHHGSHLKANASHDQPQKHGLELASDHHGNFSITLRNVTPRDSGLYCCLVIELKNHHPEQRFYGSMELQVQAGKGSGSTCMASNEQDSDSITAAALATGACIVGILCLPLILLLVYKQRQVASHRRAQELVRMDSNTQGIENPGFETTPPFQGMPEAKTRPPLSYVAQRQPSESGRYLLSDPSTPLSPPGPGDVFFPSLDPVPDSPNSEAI
Test: Cell-Based Binding High-Content Assay For mVISTA (HC CBA mVISTA)
Settings: read-out: HC CBA mVISTA IC50
Outline: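 This high-content binding assay uses HEK293T cells expressing murine VISTA, measuring displacement of 2 nM biotinylated peptide by fluorescent streptavidin imaging. IC50 values come from four-parameter logistic fitting.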

Row | IC50 [nM] | SMILES
1 | 11 | CCCCCCN1CC(=O)N[C@@H](Cc2ccc(O)cc2)C(=O)N[C@@H](CCCCC)C(=O)N[C@@H](CC(N)=O)C(=O)N[C@@H](CCCNC(=N)N)C(=O)N(C)[C@@H](CCCC)C(=O)N[C@@H](CCCCC)C(=O)N2CCC[C@H]2C(=O)N[C@@H](C(C)C)C(=O)N[C@@H](C(C)C)C(=O)N[C@H](C(=O)NCC(=O)O)CSCC(=O)N[C@@H](Cc2ccccc2)C(=O)N[C@@H](Cc2cccc(C)c2)C(=O)N[C@@H](CC(=O)O)C1=O [compound 1344] ({CH2CO}-F[Phe(3-Me)]D[NHexGly]Y[Ahp(2)]NR[NMeNle][Ahp(2)]PVVCG-OH; thioether N-14)
2 | 12.7 | CCCCCCN1CC(=O)N[C@@H](Cc2ccc(O)cc2)C(=O)N[C@@H](CCCC)C(=O)N[C@@H](CC(N)=O)C(=O)N[C@@H](CCCNC(=N)N)C(=O)N(C)[C@@H](CCCC)C(=O)N[C@@H](CCCCC)C(=O)N2CCC[C@H]2C(=O)N[C@@H](C(C)C)C(=O)N[C@@H](CC(=O)O)C(=O)N[C@H](C(=O)NCC(=O)O)CSCC(=O)N[C@@H](Cc2ccccc2)C(=O)N[C@@H](Cc2cccc(C)c2)C(=O)N[C@@H](CC(=O)O)C1=O [compound 1345] ({CH2CO}-F[Phe(3-Me)]D[NHexGly]Y[Nle]NR[NMeNle][Ahp(2)]PVDCG-OH; thioether N-14)
3 | 6.1 | CCCCCCN1CC(=O)N[C@@H](Cc2ccc(O)cc2)C(=O)N[C@@H](CCCCC)C(=O)N[C@@H](CC(N)=O)C(=O)N[C@@H](CCCNC(=N)N)C(=O)N(C)[C@@H](CCCC)C(=O)N[C@@H](CCCCC)C(=O)N2CCC[C@H]2C(=O)N[C@@H](C(C)C)C(=O)N[C@@H](C(C)C)C(=O)N[C@H](C(=O)NC(CO)C(=O)O)CSCC(=O)N[C@@H](Cc2ccccc2)C(=O)N[C@@H](Cc2cccc(C)c2)C(=O)N[C@@H](CC(=O)O)C1=O (some centres unmarked) [compound 1346] ({CH2CO}-F[Phe(3-Me)]D[NHexGly]Y[Ahp(2)]NR[NMeNle][Ahp(2)]PVVC[ξS]-OH; thioether N-14)
4 | 10.6 | CCCCCCN1CC(=O)N[C@@H](Cc2ccc(O)cc2)C(=O)N[C@@H](CCCC)C(=O)N[C@@H](CC(=O)O)C(=O)N[C@@H](CCCNC(=N)N)C(=O)N(C)[C@@H](CCCC)C(=O)N[C@@H](CCCCC)C(=O)N2CCC[C@H]2C(=O)N[C@@H](C(C)C)C(=O)N[C@@H](CC(=O)O)C(=O)N[C@H](C(=O)NC(CO)C(N)=O)CSCC(=O)N[C@@H](Cc2ccccc2)C(=O)N[C@@H](Cc2cccc(C)c2)C(=O)N[C@@H](CC(=O)O)C1=O (some centres unmarked) [compound 1347] ({CH2CO}-F[Phe(3-Me)]D[NHexGly]Y[Nle]DR[NMeNle][Ahp(2)]PVDC[ξS]-NH2; thioether N-14)
5 | 23.2 | CCCCCCN1CC(=O)N[C@@H](Cc2ccc(O)cc2)C(=O)N[C@@H](CCCC)C(=O)N[C@@H](CC(=O)O)C(=O)N[C@@H](CCCN)C(=O)N(C)[C@@H](CCCC)C(=O)N[C@@H](CCCCC)C(=O)N2CCC[C@H]2C(=O)N[C@@H](C(C)C)C(=O)N[C@@H](CC(=O)O)C(=O)N[C@H](C(=O)NC(CO)C(N)=O)CSCC(=O)N[C@@H](Cc2ccccc2)C(=O)N[C@@H](Cc2cccc(C)c2)C(=O)N[C@@H](CC(=O)O)C1=O (some centres unmarked) [compound 1348] ({CH2CO}-F[Phe(3-Me)]D[NHexGly]Y[Nle]D[Orn][NMeNle][Ahp(2)]PVDC[ξS]-NH2; thioether N-14)

Further lines, the compound ahead of its results:

Row | SMILES | IC50 [nM]
6 | CCCCCCN1CC(=O)N[C@@H](Cc2ccc(O)cc2)C(=O)N[C@@H](CC(C)C)C(=O)N[C@@H](CC(N)=O)C(=O)N[C@@H](CCCNC(=N)N)C(=O)N(C)[C@@H](CCCC)C(=O)N[C@@H](CCCCC)C(=O)N2CCC[C@H]2C(=O)N[C@@H](C(C)(C)C)C(=O)N[C@@H](CO)C(=O)N[C@H](C(=O)NCC(N)=O)CSCC(=O)N[C@@H](Cc2ccccc2)C(=O)N[C@@H](Cc2cccc(Cl)c2)C(=O)N[C@@H](CC(=O)O)C1=O [compound 1339] ({CH2CO}-F[Phe(3-Cl)]D[NHexGly]YLNR[NMeNle][Ahp(2)]P[Tle]SCG-NH2; thioether N-14) | 31.6
7 | CCCCCCN1CC(=O)N[C@@H](Cc2ccc(O)cc2)C(=O)N[C@@H](CC(C)C)C(=O)N[C@@H](CC(N)=O)C(=O)N[C@@H](CCCNC(=N)N)C(=O)N(C)[C@@H](CCCC)C(=O)N[C@@H](CCCCC)C(=O)N2CCC[C@H]2C(=O)N[C@@H](C(C)(C)C)C(=O)N[C@@H](CO)C(=O)N[C@H](C(=O)NCC(N)=O)CSCC(=O)N[C@@H](Cc2ccccc2)C(=O)N[C@@H](Cc2cccc(C#N)c2)C(=O)N[C@@H](CC(=O)O)C1=O [compound 1340] ({CH2CO}-F[Phe(3-CN)]D[NHexGly]YLNR[NMeNle][Ahp(2)]P[Tle]SCG-NH2; thioether N-14) | 36.8
8 | CCCCCCN1CC(=O)N[C@@H](Cc2ccc(O)cc2)C(=O)N[C@@H](CC(C)C)C(=O)N[C@@H](CC(N)=O)C(=O)N[C@@H](CCCNC(=N)N)C(=O)N(C)[C@@H](CCCC)C(=O)N[C@@H](CCCCC)C(=O)N2CCC[C@H]2C(=O)N[C@@H](C(C)(C)C)C(=O)N[C@@H](CO)C(=O)N[C@H](C(=O)NCC(N)=O)CSCC(=O)N[C@@H](Cc2ccccc2)C(=O)N[C@@H](Cc2cccc(F)c2)C(=O)N[C@@H](CC(=O)O)C1=O [compound 1341] ({CH2CO}-F[Phe(3-F)]D[NHexGly]YLNR[NMeNle][Ahp(2)]P[Tle]SCG-NH2; thioether N-14) | 19.1
9 | CCCCCCN1CC(=O)N[C@@H](Cc2ccc(O)cc2)C(=O)N[C@@H](CCCC)C(=O)N[C@@H](CC(=O)O)C(=O)N[C@@H](CCCNC(=N)N)C(=O)N(C)[C@@H](CCCC)C(=O)N[C@@H](CCCCC)C(=O)N2CCC[C@H]2C(=O)N[C@@H](C(C)C)C(=O)N[C@@H](CC(=O)O)C(=O)N[C@H](C(=O)NC(CC(=O)O)C(N)=O)CSCC(=O)N[C@@H](Cc2ccccc2)C(=O)N[C@@H](Cc2cccc(C)c2)C(=O)N[C@@H](CC(=O)O)C1=O (some centres unmarked) [compound 1342] ({CH2CO}-F[Phe(3-Me)]D[NHexGly]Y[Nle]DR[NMeNle][Ahp(2)]PVDC[ξD]-NH2; thioether N-14) | 12.5
10 | CCCCCCN1CC(=O)N[C@@H](Cc2ccc(O)cc2)C(=O)N[C@@H](CCCC)C(=O)N[C@@H](CC(=O)O)C(=O)N[C@@H](CCCN)C(=O)N(C)[C@@H](CCCC)C(=O)N[C@@H](CCCCC)C(=O)N2CCC[C@H]2C(=O)N[C@@H](C(C)C)C(=O)N[C@@H](CC(=O)O)C(=O)N[C@H](C(=O)NC(CC(=O)O)C(N)=O)CSCC(=O)N[C@@H](Cc2ccccc2)C(=O)N[C@@H](Cc2cccc(C)c2)C(=O)N[C@@H](CC(=O)O)C1=O (some centres unmarked) [compound 1343] ({CH2CO}-F[Phe(3-Me)]D[NHexGly]Y[Nle]D[Orn][NMeNle][Ahp(2)]PVDC[ξD]-NH2; thioether N-14) | 17.8
11 | CCCCCCN1CC(=O)N[C@@H](Cc2ccc(O)cc2)C(=O)N[C@@H](CC(C)C)C(=O)N[C@@H](CC(N)=O)C(=O)N[C@@H](CCCNC(=N)N)C(=O)N(C)[C@@H](CCCC)C(=O)N[C@@H](CCCCC)C(=O)N2CCC[C@H]2C(=O)N[C@@H](C(C)(C)C)C(=O)N[C@@H](CO)C(=O)N[C@H](C(=O)NCC(N)=O)CSCC(=O)N[C@@H](Cc2ccccc2)C(=O)N[C@@H](Cc2ccc(C)cc2)C(=O)N[C@@H](CC(=O)O)C1=O [compound 1349] ({CH2CO}-F[Phe(4-Me)]D[NHexGly]YLNR[NMeNle][Ahp(2)]P[Tle]SCG-NH2; thioether N-14) | 43.6
